Reference: patent US6485755B1, “Methods of using electron active compounds for managing cancer” (Marantech Holding, priority 2000, dated 2002)
Like-named read-outs stand apart in the source and are kept apart here.

How the values were obtained:
[1] = compared with Ag(I) compounds; cited from earlier work
toenail fungus = details: 25% suspension of the composition; cited from earlier work
athlete's foot = details: solution of 100 ppm of the composition; cited from earlier work
[2] = persons not prone to silver allergies
From the text: Preferred routes of administration include topically and application to mucosa. Application can be made, for example, digitally or using a suitable applicator.

[3] = single IV injection at about 40 ppm of human blood; cited from earlier work
breast cancer = tested on: breast cancer
Description: A subject group was formed of thirty female residents of Central America aged 32 to 52 years who had been diagnosed as having breast cancer. […] The diagnosis of each subject was confirmed by biopsy and a mammogram was acquired from each subject.
Each subject was evaluated daily by an oncologist(s) and each received a single dosage of tetrasilver tetroxide by IV, i.e., intravenously, sufficient to provide a concentration in the bloodstream of 10 ppm. One-half of the patients received the dosage in 10 minutes by IV injection. The other half of the subjects received the dosage by IV injection over a 4-hour period.
As discussed below, the subjects were arranged in three histology groups. Within each histologic group, 50% of the subjects received the dosage via the 10 minute IV and the other 50% of the subjects received the dosage over the 4 hour period of time.
Prior to initiating treatment, the tetrasilver tetroxide was subjected a quality assurance protocol to reduce side effects.
Group I: Group I included 10 patients who had been diagnosed as having infiltrative canalicular breast carcinoma.
A 1 cm diameter biopsy fragment was sent to a pathologist laboratory.
Group II: Group II included 10 subjects were diagnosed as having ductile carcinoma special type, medular breast cancer.
Group III: Group III included ten patients diagnosed as having infiltrative lobular breast cancer.
For each of the three groups, the dosage was 10 ppm for every subject. The patients had 24-hour evaluations by three oncologists who were each responsible for an 8-hour time period. Every 4 hours, a professional nurse acquired vital signs from the subjects. Twenty-four hour hemodynamic monitoring was performed. The subjects walked 2 hours after they received the dosage and they were prescribed a free diet. Every twenty-four hours, urine was collected. Every seven days, the following laboratory tests were performed: a complete blood count, hemoglobin, hematocracity, vcm, vhcm, complete red blood cells, complete white blood cells, albumin, bilirubin, calcium, and cholesterol, creatine, glucose, ldh, potassium, sodium, triglyceride, uric acid, urea nitrogen, AST and SGOT.

[4] = tested on: gynecological yeast infection; details: 10 ppm silver tetroxide and 40 ppm sodium persulfate; cited from earlier work
HL-60 = details: HL-60, estimated
Description: (§1) An independent laboratory performed cytotoxicity tumor cell proliferation studies and evaluations. A culture of leukemia K562 was tested in vitro against media concentrations of tetrasilver tetroxide at: 0.5, 1,5, 10, 50, 100, 500 and 1000 ppm.
(§2) The tetroxide was dispersed in pure dimethyl sulfoxide and then diluted with Holipharm NPS buffer PH=7.4 (Holipharm International Co., Wilmington, Del.) in culture media to achieve the aforesaid final assay concentrations. The acronym NPS refers to non phosphate non saline. The culture media comprised RPMI 1640, 90% and fetal bovine serum, 10%. The cancer cultures were obtained from a cell line provided by the American Type Culture Collection (ATCC) and were incubated at 37° C. with 5% CO2 in air atmosphere. The culture was a human chronic myelogenous leukemia, of cell line source ATCCCCL-243.
(§3) As for the actual evaluation, cell proliferation analysis was based on the ability of viable cells to cause alamar blue to change from oxidized (non-fluorescent, blue) to reduced (fluorescent, red) form. Details of the procedure are described in an article by S. Ansar Ahmed et. al. in the Journal of Immunological Methods 170 (1994).
(§4) The ^aIC50 (50% Inhibition Concentration) is the test compound concentration where the increase from times in the number or mass of treated cells was only 50% as much as the corresponding increase in the vehicle-control at the end of experiment. The bTGI (Total Growth Inhibition) is the test compound concentration where the number or mass of treated cells at the end of experiment was equal to that at time. The CLC (50% Lethal Concentration) is the test compound concentration where the number or mass of treated cells at the end of experiment was half that at time.

[5] = tested on: human malignant melanoma cell line SK-MEL-5
Description: as §1, §2, §3, §4

T47D = details: estimated
Description: as §1, §2, §3, §4

A549 = details: A549, estimated
Description: as §1, §2, §3, §4

PC-3 = details: PC-3, estimated
Description: as §1, §2, §3, §4

MCF-7 = details: MCF-7, estimated
Description: as §1, §2, §3, §4

leukemia K562 = tested on: leukemia K562
Description: as §1, §2, §3, §4

PANC-i = details: estimated
Description: as §1, §2, §3, §4

pc-6 = details: pc-6, estimated
Description: as §1, §2, §3, §4

H33HJ-.JA1 = details: H33HJ-.JA1, estimated
Description: as §1, §2, §3, §4

HeDG2 = details: HeDG2, estimated
Description: as §1, §2, §3, §4

U937 = details: U937, estimated
Description: as §1, §2, §3, §4

KATO III = details: estimated
Description: as §1, §2, §3, §4

MIA PaCa2 = details: MIA PaCa2, estimated
Description: as §1, §2, §3, §4

A498 = details: A498, estimated
Description: as §1, §2, §3, §4

DLD-i = details: estimated
Description: as §1, §2, §3, §4

[6] = Group III, day 20 after treatment

Q: Which “staining of organic matter such as skin” value [1] does the source give for `[Ag+].[Ag+].[Ag+].[Ag+].[O-2].[O-2].[O-2].[O-2]` [tetrasilver tetroxide] here?
A: did not stain organic matter such as skin

Q: What about the “outcome of toenail fungus, single case” value (toenail fungus) of the same molecule?
A: cure

Q: And the “outcome of athlete's foot, single case” value (athlete's foot)?
A: cure

Q: And the “ill effects or irritation on application to the skin” value [2]?
A: without any ill effects or evidence of irritation

Q: What about the “adverse effect on the liver” value [3] of the same molecule?
A: hepatomegaly

Q: And the liver function [3]?
A: no reported loss of liver function

Q: What about the “sodium, potassium and magnesium blood levels” value (breast cancer; Group I) of the same molecule?
A: decreased

Q: And the nodule on palpation (breast cancer; Group I infiltrative canalicular breast carcinoma, single IV dose 10 ppm in bloodstream, 12 days after treatment)?
A: the nodule was no longer discernable by touch

Q: What about the “patients with increase in body temperature and slight liver enlargement” value (breast cancer; Group I, 10 minute IV injection subgroup) of the same molecule?
A: Three of the patients

Q: And the “biopsies reported as normal mammary tissue” value (breast cancer; Group I, biopsy ordered 19 days after treatment)?
A: 100%

Q: What about the liver function (breast cancer; Group I, patients with liver enlargement) of the same molecule?
A: not affected

Q: What about the liver function (breast cancer; Group II) of the same molecule?
A: not affected

Q: What about the “sodium, potassium and magnesium blood levels” value (breast cancer; Group II) of the same molecule?
A: decreased

Q: And the average tumor size (breast cancer; Group II medular breast cancer, 36 hours after treatment, formerly 10 cm)?
A: 8.4 cm

Q: And the “biopsy reported as normal mammary tissue” value (breast cancer; Group II, biopsy after 24 days)?
A: 90%

Q: And the tumor mass (breast cancer; Group II, day 16 after treatment)?
A: the huge tumor mass was gone

Q: What about the “patients with increase in body temperature and slight liver enlargement” value (breast cancer; Group II, direct IV injection subgroup) of the same molecule?
A: One patient

Q: What about the “sodium, potassium and magnesium blood levels” value (breast cancer; Group III) of the same molecule?
A: deceased

Q: And the average nodule size (breast cancer; Group III infiltrative lobular breast cancer, 5 days after treatment, from 4 cm)?
A: 2.6 cm

Q: And the “biopsies reported as normal mammary tissue” value (breast cancer; Group III, biopsy ordered day 29 after treatment)?
A: 80%

Q: What about the average nodule size (breast cancer; [6]) of the same molecule?
A: 1 cm

Q: What about the “remission of retracted nipples, nipple bleeding, distorted areola, mass attachment” value (breast cancer; [6]) of the same molecule?
A: 90%

Q: What about the “patients with increase in body temperature or slight liver enlargement” value (breast cancer; Group III, direct injection subgroup) of the same molecule?
A: None of the patients

Q: And the “period to apparent cure” value (breast cancer; ductile carcinoma special type, medular breast carcinoma (Group II))?
A: 30 days

Q: And the “period to apparent cure” value (breast cancer; infiltrative breast carcinoma (Group I))?
A: 24 days

Q: What about the “period to apparent cure” value (breast cancer; infiltrative lobular breast cancer (Group III)) of the same molecule?
A: 30 days

Q: And the “outcome of gynecological yeast infection” value [4]?
A: curing

Q: What about the IC50 (HL-60) of the same molecule?
A: 2.1 ppm

Q: And the LC50 (HL-60)?
A: 4.6 ppm

Q: And the TGI (HL-60)?
A: 3.1 ppm

Q: What about the “IC50 (50% Inhibition Concentration)” value [5] of the same molecule?
A: 3.7 ppm

Q: What about the “LC50 (50% Lethal Concentration)” value [5] of the same molecule?
A: 6.5 ppm

Q: What about the “TGI (Total Growth Inhibition)” value [5] of the same molecule?
A: 4.9 ppm

Q: What about the IC50 (T47D) of the same molecule?
A: 1.1 ppm

Q: What about the LC50 (T47D) of the same molecule?
A: 2.6 ppm

Q: And the TGI (T47D)?
A: 1.6 ppm

Q: What about the IC50 (A549) of the same molecule?
A: 4.8 ppm

Q: What about the LC50 (A549) of the same molecule?
A: 7.0 ppm

Q: What about the TGI (A549) of the same molecule?
A: 5.8 ppm

Q: What about the IC50 (PC-3) of the same molecule?
A: 7.7 ppm

Q: And the LC50 (PC-3)?
A: 25 ppm

Q: And the TGI (PC-3)?
A: 14 ppm

Q: What about the IC50 (MCF-7) of the same molecule?
A: 3.0 ppm

Q: And the LC50 (MCF-7)?
A: 5.0 ppm

Q: And the TGI (MCF-7)?
A: 3.9 ppm

Q: What about the “IC50 (50% Inhibition Concentration)” value (leukemia K562) of the same molecule?
A: 2.2 ppm

Q: And the “LC50 (50% Lethal Concentration)” value (leukemia K562)?
A: 6.0 ppm

Q: And the “TGI (Total Growth Inhibition)” value (leukemia K562)?
A: 4.6 ppm

Q: And the IC50 (PANC-i)?
A: 4.8 ppm

Q: And the LC50 (PANC-i)?
A: 8.6 ppm

Q: And the TGI (PANC-i)?
A: 6.4 ppm

Q: And the IC50 (pc-6)?
A: 0.9 ppm

Q: What about the LC50 (pc-6) of the same molecule?
A: 1.1 ppm

Q: And the TGI (pc-6)?
A: 1.0 ppm

Q: What about the IC50 (H33HJ-.JA1) of the same molecule?
A: 0.79 ppm

Q: What about the LC50 (H33HJ-.JA1) of the same molecule?
A: 3.8 ppm

Q: What about the TGI (H33HJ-.JA1) of the same molecule?
A: 1.3 ppm

Q: And the IC50 (HeDG2)?
A: 2.6 ppm

Q: And the LC50 (HeDG2)?
A: 4.7 ppm

Q: And the TGI (HeDG2)?
A: 3.5 ppm

Q: What about the IC50 (U937) of the same molecule?
A: 1.3 ppm

Q: And the LC50 (U937)?
A: 3.6 ppm

Q: And the TGI (U937)?
A: 2.2 ppm

Q: What about the IC50 (KATO III) of the same molecule?
A: 3.2 ppm

Q: What about the LC50 (KATO III) of the same molecule?
A: 4.1 ppm

Q: And the TGI (KATO III)?
A: 3.6 ppm

Q: What about the IC50 (MIA PaCa2) of the same molecule?
A: 2.0 ppm

Q: What about the LC50 (MIA PaCa2) of the same molecule?
A: 8.1 ppm

Q: And the TGI (MIA PaCa2)?
A: 4.0 ppm

Q: What about the IC50 (A498) of the same molecule?
A: 1.8 ppm

Q: And the LC50 (A498)?
A: 3.1 ppm

Q: And the TGI (A498)?
A: 2.4 ppm

Q: And the IC50 (DLD-i)?
A: 2.5 ppm

Q: And the LC50 (DLD-i)?
A: 3.6 ppm

Q: And the TGI (DLD-i)?
A: 3.0 ppm
